Patent US9604996B2 (Bayer Pharma Aktiengesellschaft, priority 2013, dated 2017)

Biological target: T1, human adenosine A2b receptor (Homo sapiens, UniProt P29275)
T1 construct: expressed in transfected cells; host or cells: CHO-K1 (Chinese Hamster Ovary) with CRE-luciferase reporter
T1 sequence (P29275 1-332): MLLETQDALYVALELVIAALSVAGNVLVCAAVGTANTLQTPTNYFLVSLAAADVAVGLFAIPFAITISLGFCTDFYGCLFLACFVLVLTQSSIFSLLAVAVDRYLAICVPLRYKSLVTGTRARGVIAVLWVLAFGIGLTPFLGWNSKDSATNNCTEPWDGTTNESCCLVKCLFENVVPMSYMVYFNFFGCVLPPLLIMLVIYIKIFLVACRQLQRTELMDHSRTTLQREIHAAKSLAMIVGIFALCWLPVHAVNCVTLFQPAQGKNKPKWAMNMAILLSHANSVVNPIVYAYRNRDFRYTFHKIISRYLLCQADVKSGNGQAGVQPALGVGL
Test: Cellular reporter gene (CRE-luciferase) A2b receptor antagonist assay in recombinant CHO-K1 cells stimulated with NECA
Assay type: cell-based
Settings: recombinant CHO-K1 cell line, co-incubation with EC50 concentration of NECA, 3 hours, in some cases means, rounded to two significant digits
Procedure: B-1. Cellular In Vitro Tests for Determining A2b Receptor Activity and Adenosine Receptor Selectivity
The identification of selective antagonists of the human adenosine A2b receptor and the quantification of the efficacy and selectivity of the compounds according to the invention was carried out with the aid of recombinant cell lines for the human adenosine receptors A1, A2a, A2b and A3. These cell lines were originally derived from an ovarepithelial cell of the hamster (Chinese Hamster Ovary, CHO-K1, American Type Culture Collection, Manassas, Va. 20108, USA). In addition to the respective recombinantly expressed adenosine receptor for testing the efficacy at the A1, A2a and A2b receptors, the cell lines contain a reporter gene construct where expression of the firefly (Photinus pyralis) luciferase is under the control of a promoter which can be activated via intracellular signal cascades by stimulation of the receptors with the (not subtype-selective) adenosine receptor agonist NECA (5′-N-ethylcarboxamidoadenosine) [S. J. Hill, J. G. Baker, S. Rhees, Curr. Opin. Pharmacol. 1, 526-532 (2001)].
In the case of the A2a and A2b cell lines, this is a minimal promoter having a plurality of cAMP-responsive elements (CRE). Stimulation of the Gs coupled A2b or A2a receptors by NECA ultimately leads, via formation of cAMP, to CRE-dependent induction of luciferase expression, which is detected 3 hours after the start of the incubation with NECA using a detection solution in a suitable luminometer. For testing the antagonists, initially, in a pre-experiment, the concentration of NECA which, at the test day in question, results in half-maximum stimulation of luciferase expression (EC50 concentration) is determined By joint incubation of this EC50 concentration of NECA with the substances to be tested, it is possible to determine their antagonistic activity.

Row | SMILES | IC50 [nM]
1 | Cc1c(C(=O)N2CCC(O)CC2)sc2c1c(=O)n(CCc1cccnc1)c(=O)n2CCC(F)(F)F [Example 15] | 32
2 | Cc1c(C(=O)N2CCC(O)CC2)sc2c1c(=O)n(CCc1cnccn1)c(=O)n2CCC(F)(F)F [Example 17, 6-[(4-Hydroxypiperidin-1-yl)carbonyl]-5-methyl-3-[2-(pyrazin-2-yl)ethyl]-1-(3,3,3-trifluoropropyl)thieno[2,3-d]pyrimidine-2,4(1H,3H)-dione] | 350
3 | CCn1c(=O)c2c(C)c(C(=O)N3[C@@H]4CC[C@H]3CC(O)C4)sc2n(CCC(F)(F)F)c1=O (stereo partly shown) [Example 23, 3-Ethyl-6-[(3-hydroxy-8-azabicyclo[3.2.1]oct-8-yl)carbonyl]-5-methyl-1-(3,3,3-trifluoropropyl)thieno[2,3-d]pyrimidine-2,4(1H,3H)-dione] | 43
4 | Cc1c(C(=O)N2CCNC(=O)C2)sc2c1c(=O)n(CCc1ccccc1)c(=O)n2CCC=C(F)F [Example 27, 1-(4,4-Difluorobut-3-en-1-yl)-5-methyl-6-[(3-oxopiperazin-1-yl)carbonyl]-3-(2-phenylethyl)thieno[2,3-d]pyrimidine-2,4(1H,3H)-dione] | 41
5 | COCCn1c(=O)n(CCc2ccccc2)c(=O)c2c(C)c(C(=O)N3CCNC(=O)C3)sc21 [Example 28, 1-(2-Methoxyethyl)-5-methyl-6-[(3-oxopiperazin-1-yl)carbonyl]-3-(2-phenylethyl)thieno[2,3-d]pyrimidine-2,4(1H,3H)-dione] | 150
6 | Cc1c(C(=O)N2CCNC(=O)C2)sc2c1c(=O)n(CCc1ccccc1F)c(=O)n2CCC=C(F)F [Example 30, 1-(4,4-Difluorobut-3-en-1-yl)-3-[2-(2-fluorophenyl)ethyl]-5-methyl-6-[(3-oxopiperazin-1-yl)carbonyl]thieno[2,3-d]pyrimidine-2,4(1H,3H)-dione] | 53
7 | Cc1c(C(=O)N2CCNC(=O)C2)sc2c1c(=O)n(CCc1cccnc1)c(=O)n2CCC=C(F)F [Example 34, 1-(4,4-Difluorobut-3-en-1-yl)-5-methyl-6-[(3-oxopiperazin-1-yl)carbonyl]-3-[2-(pyridin-3-yl)ethyl]thieno[2,3-d]pyrimidine-2,4(1H,3H)-dione] | 120
8 | CCn1c(=O)c2c(C)c(C(=O)N3CCNC(=O)C3)sc2n(CCC=C(F)F)c1=O [Example 36, 1-(4,4-Difluorobut-3-en-1-yl)-3-ethyl-5-methyl-6-[(3-oxopiperazin-1-yl)carbonyl]thieno[2,3-d]pyrimidine-2,4(1H,3H)-dione] | 200
9 | CCn1c(=O)c2c(C)c(C(=O)N3CCNC(=O)C3)sc2n(CCOC)c1=O [Example 37, 3-Ethyl-1-(2-methoxyethyl)-5-methyl-6-[(3-oxopiperazin-1-yl)carbonyl]thieno[2,3-d]pyrimidine-2,4(1H,3H)-dione] | 340
10 | CCn1c(=O)c2c(C)c(C(=O)N3CCNC(=O)C3(C)C)sc2n(CCC(F)(F)F)c1=O [Example 38, 6-[(2,2-Dimethyl-3-oxopiperazin-1-yl)carbonyl]-3-ethyl-5-methyl-1-(3,3,3-trifluoropropyl)thieno[2,3-d]pyrimidine-2,4(1H,3H)-dione] | 140
11 | Cc1c(C(=O)N2CCC(O)CC2)sc2c1c(=O)n(CC1(c3ccccc3)CC1)c(=O)n2CCC(F)(F)F [Example 49, 6-[(4-Hydroxypiperidin-1-yl)carbonyl]-5-methyl-3-[(1-phenylcyclopropyl)methyl]-1-(3,3,3-trifluoropropyl)thieno[2,3-d]pyrimidine-2,4(1H,3H)-dione] | 68
12 | Cc1c(C(=O)N2CCC(O)CC2)sc2c1c(=O)n(CC(C)(C)c1ccccc1)c(=O)n2CCC(F)(F)F [Example 50, 6-[(4-Hydroxypiperidin-1-yl)carbonyl]-5-methyl-3-(2-methyl-2-phenylpropyl)-1-(3,3,3-trifluoropropyl)thieno[2,3-d]pyrimidine-2,4(1H,3H)-dione] | 150
13 | COCCn1c(=O)n(CC(F)(F)c2ccccc2)c(=O)c2c(C)c(C(=O)N3CCC(O)CC3)sc21 [Example 52, 3-(2,2-Difluoro-2-phenylethyl)-6-[(4-hydroxypiperidin-1-yl)carbonyl]-1-(2-methoxyethyl)-5-methylthieno[2,3-d]pyrimidine-2,4(1H,3H)-dione] | 210

Other lines, results leading:

Row | IC50 [nM] | SMILES
14 | 92 | CCn1c(=O)c2c(C)c(C(=O)N3CCC(O)CC3)sc2n(CCC=C(F)F)c1=O [Example 19, 1-(4,4-Difluorobut-3-en-1-yl)-3-ethyl-6-[(4-hydroxypiperidin-1-yl)carbonyl]-5-methylthieno[2,3-d]pyrimidine-2,4(1H,3H)-dione]
15 | 340 | CCn1c(=O)c2c(C)c(C(=O)N3CCC(O)CC3)sc2n(CCOC)c1=O [Example 20, 3-Ethyl-6-[(4-hydroxypiperidin-1-yl)carbonyl]-1-(2-methoxyethyl)-5-methylthieno[2,3-d]pyrimidine-2,4(1H,3H)-dione]
16 | 67 | CCn1c(=O)c2c(C)c(C(=O)N3CCC(O)(C(F)(F)F)CC3)sc2n(CCC(F)(F)F)c1=O [Example 22, 3-Ethyl-6-{[4-hydroxy-4-(trifluoromethyl)piperidin-1-yl]carbonyl}-5-methyl-1-(3,3,3-trifluoropropyl)thieno[2,3-d]pyrimidine-2,4(1H,3H)-dione]
17 | 49 | CCn1c(=O)c2c(C(F)(F)F)c(C(=O)N3CCC(O)CC3)sc2n(CCC(F)(F)F)c1=O [Example 25, 3-Ethyl-6-[(4-hydroxypiperidin-1-yl)carbonyl]-5-(trifluoromethyl)-1-(3,3,3-trifluoropropyl)thieno[2,3-d]pyrimidine-2,4(1H,3H)-dione]
18 | 88 | CCn1c(=O)c2c(C(F)(F)F)c(C(=O)N3CCNC(=O)C3)sc2n(CCC(F)(F)F)c1=O [Example 42, 3-Ethyl-6-[(3-oxopiperazin-1-yl)carbonyl]-5-(trifluoromethyl)-1-(3,3,3-trifluoropropyl)thieno[2,3-d]pyrimidine-2,4(1H,3H)-dione]
19 | 16 | Cc1c(C(=O)N2CCC(O)CC2)sc2c1c(=O)n(CC(F)(F)c1ccccc1)c(=O)n2CCC(F)(F)F [Example 51, 3-(2,2-Difluoro-2-phenylethyl)-6-[(4-hydroxypiperidin-1-yl)carbonyl]-5-methyl-1-(3,3,3-trifluoropropyl)thieno[2,3-d]pyrimidine-2,4(1H,3H)-dione]
20 | 170 | Cc1c(C(=O)N2CCC(O)CC2)sc2c1c(=O)n(CCc1ccccn1)c(=O)n2CCC(F)(F)F [Example 53, 6-[(4-Hydroxypiperidin-1-yl)carbonyl]-5-methyl-3-[2-(pyridin-2-yl)ethyl]-1-(3,3,3-trifluoropropyl)thieno[2,3-d]pyrimidine-2,4(1H,3H)-dione]
21 | 250 | Cc1c(C(=O)N2CCC(O)CC2)sc2c1c(=O)n(CCn1ccnc1)c(=O)n2CCC(F)(F)F [Example 55, 6-[(4-Hydroxypiperidin-1-yl)carbonyl]-3-[2-(1H-imidazol-1-yl)ethyl]-5-methyl-1-(3,3,3-trifluoropropyl)thieno[2,3-d]pyrimidine-2,4(1H,3H)-dione]
22 | 19 | CCn1c(=O)c2c(C)c(C(=O)N3CCC(O)CC3)sc2n(CCOC(F)(F)F)c1=O [Example 56, 3-Ethyl-6-[(4-hydroxypiperidin-1-yl)carbonyl]-5-methyl-1-[2-(trifluoromethoxy)ethyl]thieno[2,3-d]pyrimidine-2,4(1H,3H)-dione]
23 | 130 | CCn1c(=O)c2c(C)c(C(=O)N3CCC(O)CC3)sc2n(CCSC(F)(F)F)c1=O [Example 57, 3-Ethyl-6-[(4-hydroxypiperidin-1-yl)carbonyl]-5-methyl-1-{2-[(trifluoromethyl)sulphanyl]ethyl}thieno[2,3-d]pyrimidine-2,4(1H,3H)-dione]
24 | 380 | C=C(Cn1c(=O)n(CC)c(=O)c2c(C)c(C(=O)N3CCC(O)CC3)sc21)C(F)(F)F [Example 58, 3-Ethyl-6-[(4-hydroxypiperidin-1-yl)carbonyl]-5-methyl-1-[2-(trifluoromethyl)prop-2-en-1-yl]thieno[2,3-d]pyrimidine-2,4(1H,3H)-dione]
25 | 12 | CCCn1c(=O)c2c(C)c(C(=O)N3CCC(O)CC3)sc2n(CCOC(F)(F)F)c1=O [Example 60, 6-[(4-Hydroxypiperidin-1-yl)carbonyl]-5-methyl-3-propyl-1-[2-(trifluoromethoxy)ethyl]thieno[2,3-d]pyrimidine-2,4(1H,3H)-dione]
